Target: T1, Phospholipase A2, membrane associated (Homo sapiens, UniProt P14555)
T1 sequence (P14555 whole entry): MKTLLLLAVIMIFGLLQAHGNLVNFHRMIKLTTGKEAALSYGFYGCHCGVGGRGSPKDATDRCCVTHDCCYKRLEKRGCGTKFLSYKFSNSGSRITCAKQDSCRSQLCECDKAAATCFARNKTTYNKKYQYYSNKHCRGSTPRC
Test: Inhibition of human nonpancreatic secretory phospholipase A2

Compound	IC50
COc1ccc2c(c1)c(CC(N)=O)c(C)n2Cc1ccccc1	540 nM
COc1ccc2c(c1)c(CC(N)=O)c(C)n2Cc1ccccc1OCCCCCCCOc1ccccc1Cn1c(C)c(CC(N)=O)c2cc(OC)ccc21	52 nM
COc1ccc2c(c1)c(CC(N)=O)c(C)n2Cc1ccc(OCCCCCOc2ccc(Cn3c(C)c(CC(N)=O)c4cc(OC)ccc43)cc2)cc1	86 nM
COc1ccc2c(c1)c(CC(N)=O)c(C)n2Cc1ccccc1OCCCCOc1ccccc1Cn1c(C)c(CC(N)=O)c2cc(OC)ccc21	60 nM
COc1ccc2c(c1)c(CC(N)=O)c(C)n2Cc1ccccc1OCCCCCCCCOc1ccccc1Cn1c(C)c(CC(N)=O)c2cc(OC)ccc21	58 nM
COc1ccc2c(c1)c(CC(N)=O)c(C)n2Cc1cccc(OCCCCCOc2cccc(Cn3c(C)c(CC(N)=O)c4cc(OC)ccc43)c2)c1	76 nM
CCCCCOc1ccccc1Cn1c(C)c(CC(N)=O)c2cc(OC)ccc21	120 nM

Compounds with a lower IC50, results first:

IC50	Compound
24 nM	COc1ccc2c(c1)c(CC(N)=O)c(C)n2Cc1ccccc1OCCCCCOc1ccccc1Cn1c(C)c(CC(N)=O)c2cc(OC)ccc21
49 nM	COc1ccc2c(c1)c(CC(N)=O)c(C)n2Cc1ccccc1OCCCCCCCCCOc1ccccc1Cn1c(C)c(CC(N)=O)c2cc(OC)ccc21
48 nM	COc1ccc2c(c1)c(CC(N)=O)c(C)n2Cc1ccccc1OCCCOc1ccccc1Cn1c(C)c(CC(N)=O)c2cc(OC)ccc21
39 nM	COc1ccc2c(c1)c(CC(N)=O)c(C)n2Cc1ccccc1OCCCCCCOc1ccccc1Cn1c(C)c(CC(N)=O)c2cc(OC)ccc21

Reference: ChEMBL document CHEMBL1150777, “Chemically induced dimerization of human nonpancreatic secretory phospholipase A2 by bis-indole derivatives” (J Med Chem, 2008)
